Measured values reported in patent publication US20030124105A1, “PROGRAMMED CELL DEATH GENES AND PROTEINS” (priority 1993, published 2003).

Assays:
HeLa/crmA cells = conditions: CHX 20 μg/ml, TNF-a 5 ng/ml, 24 h, trypan blue dye exclusion, mean ± SEM
Protocol: Dosage response of HeLa and HeLa/crmA cells to TNF-α treatment was tested as follows. Cells were seeded in DMEM plus 10% fetal calf serum in a 24-well plate at a density of 4×10^4 cells per well. After overnight incubation, the cells were washed twice with serum-free DMEM. Drugs were then added to a total volume of 0.2 ml of serum-free DMEM and the cells were incubated for 24 hours. Cells were then trypsinized and dead cells scored on a hemocytometer by trypan blue exclusion (Sigma, St. Louis, Mo.). At least 200 cells were scored per well. Each concentration was tested in duplicate each time.
The effect of crmA expression on TNF-induced apoptosis was tested. […] HeLa cells or HeLa/crmA cells were treated with cycloheximide (CHX) (20 μg/ml, Sigma), TNF-α (5 ng/ml, Sigma), or a combination of both drugs. […] Control HeLa and HeLa/crmA cells were tested for the ability to resist increasing amounts of TNF-α in the presence of 10 μg/ml CHX (FIG. 18). […] The dose response of crmA-expressing HeLa cells to increasing amounts of TNF-α in the presence of 10 μg/ml of CHX was tested.

HeLa cells = type: cell-based, human

## C[C@@H]1C[C@@H]([C@H](O)CC2CC(=O)NC(=O)C2)C(=O)[C@@H](C)C1 [CHX, cycloheximide]
HeLa/crmA cells
  % dead cells: 3.8 ± 0.5%
HeLa cells
  % dead cells: 2.9 ± 0.7%
